Measured values taken from US11434241B2, “Pyrimidine derivatives for prevention and treatment of bacterial infections” (UNIVERSITE DE LIEGE, priority 2018, dated 2022).
Converted amounts (≈) assume the structure as drawn. Like-named read-outs stand apart in the source and are kept apart here.

Legend:
[1] = system: Staphylococcus epidermidis (ATCC 35984, also known as RP62A or MRSE); test: MIC determination on S. epidermidis (EUCAST, OD600 after overnight growth in MHB); format: cell-based
Protocol: The Minimal Inhibitory Concentration (MIC) of molecules 2329, 2348, 2412, 2452 and 2461 was determined on Staphylococcus epidermidis (ATCC 35984, also known as RP62A) according to EUCAST (European Committee on Antimicrobial Susceptibility Testing) recommendations.
Briefly, a single colony grown on a Tryptic Soy Agar (TSA) plate was resuspended and cultured in Tryptic Soy Broth (TSB) overnight (O/N) in aerobic conditions (37° C. with 220 rpm shaking), next day a 1:50 inoculum in Mueller-Hinton broth (MHB) was incubated in aerobic conditions for 3 hr and an inoculum of 1:100 dilution, corresponding to 3×10^5 CFU/ml, was incubated in presence or absence of different concentrations of the molecules in 1% DMSO (vehicle). After O/N growth the OD of each culture was measured at 600 nm in a spectrophotometer (OD600). The MIC represents the concentration at which there is no visible growth of bacteria, i.e. ΔOD at 600 nm equal to zero (blank is the medium alone).
The Minimal Inhibitory Concentration (MIC) of pyrazolopyrimidine molecules 2539, 2544, 2666,2676, 2693, 2783, 2784 and 2782 and of purine molecules 2498, 2511, 2525, 2527, 2833, and 2840 was determined on S. epidermidis (ATCC 35984, also known as RP62A or MRSE) according to EUCAST (European Committee on Antimicrobial Susceptibility Testing) recommendations.
Briefly, a single colony grown on an agar plate was resuspended and cultured in Triptic Soy Broth (TSB) medium overnight (O/N) in aerobic conditions (37° C. with 220 rpm shaking), next day a 1:50 inoculum in Mueller-Hinton broth (MHB) was incubated in aerobic conditions for 3 hr (OD=0.08-0.1) and an inoculum of 1:300 dilution, corresponding to 3×10^5 CFU/ml, was incubated in presence or absence of different concentrations of each of the molecules in 1% DMSO (vehicle). After O/N growth the OD of each culture was measured at 600 nm (600) in a spectrophotometer (Victor 3-Perkin Elmer). The MIC represents the concentration at which there is no visible growth of bacteria, i.e. ΔOD at 600 nm equal to zero (where ΔOD is the difference between the OD with the molecule and the OD of the blank, the medium alone).
(§1) Molecule 36z has been tested for its potential antibacterial activity by determining its minimal inhibitory concentration (MIC) according to protocols recommended by EUCAST to assess the efficacy of antibiotics against bacterial strains. In brief MIC in MRSA (ATCC BAA-1556) or in Xen29 (Perkin Elmer-ATCC 12600) for 36z (molecule 25 in WO2009/034386) was determined by culturing a single colony of MRSA or Xen29 in brain heart infusion (BHI) broth overnight (O/N) in aerobic conditions (37° C. with 220 rpm shaking), while MIC for MRSE (ATCC 35984) was determined by culturing MRSE in TSB O/N. Next day a 1:100 inoculum in Mueller-Hinton broth (MHB) is incubated in aerobic conditions for 3 hr (OD=0.08-0.1) and an inoculum of 1:300 dilution, corresponding to 3×10^5 CFU/ml, is incubated in presence or absence of different concentrations of the tested molecules in 1% DMSO. After O/N growth the OD of each culture was measured at 600 nm (OD600) in a spectrophotometer (Victor 3-Perkin Elmer). The MIC represents the concentration at which there is no visible growth of bacteria, i.e. ΔOD at 600 nm equal to zero (blank is the medium alone). No antibacterial activity was found against MRSA (ATCC BAA-1556), Xen29 (Perkin Elmer-ATCC 12600 or MRSE (ATCC 35984) strains when the molecule was used at concentrations up to 200 μM.

[2] = system: methicillin-resistant S. aureus (MRSA) ATCC BAA-1556; test: MIC determination on methicillin-resistant S. aureus; format: cell-based, Staphylococcus aureus; settings: for MIC: Staphylococcus aureus; for antibacterial activity against MRSA (in words): MHB medium
Protocol: (§2) Further experiments are conducted using different strains of S. aureus, as clinically relevant Gram-positive bacterial strains: S. aureus ATCC 25904, methicillin-resistant S. aureus (MRSA) ATCC BAA-1556, Glycopeptide intermediate-resistant (GISA) S. aureus Mu-50 (ATCC 700695) in order to determine the Minimal Inhibitory Concentration (MIC) which is the minimal concentration required to prevent bacterial growth. The bioluminescent strain S. aureus Xen29 (ATCC 12600) was also used. This strain is derived from the parental strain S. aureus ATCC 12600, a pleural fluid isolate, which is also designated as NCTC8532.
(§3) A single colony selected from the different strains of S. aureus is resuspended and cultured in brain heart infusion (BHI) broth overnight (O/N) in aerobic conditions (37° C. with 220 rpm shaking), next day a 1:100 inoculum in Mueller-Hinton broth (MHB) is incubated in aerobic conditions for 3 hr (=OD0.08-0.1) and an inoculum of 1:300 dilution, corresponding to 3×10^5 CFU/ml, is incubated in presence or absence of different concentrations of the tested molecules in 1% DMSO. After O/N growth the OD of each culture was measured at 600 nm (OD600) in a spectrophotometer (Victor 3-Perkin Elmer). The MIC represents the concentration at which there is no visible growth of bacteria, i.e. ΔOD at 600 nm equal to zero (blank is the medium alone). […] The MIC of molecule 2329 against Glycopeptide intermediate-resistant (GISA) S. aureus Mu-50 (ATCC 700695) is in between 25 and 30 μM, while it is above 50 μM for molecules 2348, 2412, and 2452.
(§4) Further experiments are conducted using different strains of S. aureus, as clinically relevant Gram-positive bacterial strains: methicillin-resistant S. aureus (MRSA) ATCC BAA-1556 and S. aureus Xen29 (Perkin Elmer ATCC 12600).
(§5) To determine the MIC of the above mentioned molecules in MRSA or in Xen29, a single colony of MRSA or Xen29 is resuspended and cultured in brain heart infusion (BHI) broth overnight (O/N) in aerobic conditions (37° C. with 220 rpm shaking), next day a 1:100 inoculum in Mueller-Hinton broth (MHB) is incubated in aerobic conditions for 3 hr (OD=0.08-0.1) and an inoculum of 1:300 dilution, corresponding to 3×10^5 CFU/ml, is incubated in presence or absence of different concentrations of the tested molecules in 1% DMSO. After O/N growth the OD of each culture was measured at 600 nm (OD600) in a spectrophotometer (Victor 3-Perkin Elmer). The MIC represents the concentration at which there is no visible growth of bacteria, i.e. ΔOD at 600 nm equal to zero (blank is the medium alone).
as §1

[3] = system: S. aureus Xen29 (ATCC 12600); test: MIC determination on bioluminescent S. aureus Xen29; format: cell-based, Staphylococcus aureus; settings: Staphylococcus aureus
Protocol: as §2, §3, §4, §5, §1

[4] = system: Murl isozyme from E. faecium; settings: Table 9 of WO2009/034386; cited from earlier work
[5] = target: Murl isozyme from E. faecalis (Enterococcus faecalis, UniProt Q836J0); settings: read-out: IC50 Murl isozyme from E. faecalis; Table 9 of WO2009/034386; cited from earlier work
Sequence of Murl isozyme from E. faecalis (Q836J0 whole entry): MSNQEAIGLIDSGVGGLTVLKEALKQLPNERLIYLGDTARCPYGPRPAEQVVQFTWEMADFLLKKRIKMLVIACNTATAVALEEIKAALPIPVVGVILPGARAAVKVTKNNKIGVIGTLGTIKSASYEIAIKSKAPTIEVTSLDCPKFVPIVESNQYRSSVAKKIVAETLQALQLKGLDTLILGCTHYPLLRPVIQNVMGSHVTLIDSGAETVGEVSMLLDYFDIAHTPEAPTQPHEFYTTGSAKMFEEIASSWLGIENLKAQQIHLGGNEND

[6] = system: S. aureus ATCC 25904; test: MIC determination on S. aureus ATCC 25904; format: cell-based; settings: Staphylococcus aureus, ATCC25904, read-out: MIC S. aureus ATCC25904
Protocol: as §2, §3

[7] = system: vancomycin-resistant (VRE) E. faecalis ATCC BAA-2365; test: MIC determination on vancomycin-resistant E. faecalis; format: cell-based, Enterococcus faecalis; settings: Mueller-Hinton broth (MHB)
Protocol: Further experiments were conducted using the clinically relevant Gram-positive bacterial strain of vancomycin-resistant (VRE) E. faecalis ATCC BAA-2365, in order to determine the Minimal Inhibitory Concentration (MIC) which is the minimal concentration required to prevent bacterial growth.
A single colony selected from E. faecalis VRE is resuspended and cultured in the brain heart infusion (BHI) broth overnight (O/N) in aerobic conditions (37° C. with 220 rpm shaking), next day a 1:100 inoculum in Mueller-Hinton broth (MHB) is incubated in aerobic conditions for 3 hr (OD=0.08-0.1) and an inoculum of 1:300 dilution, corresponding to 3×10^5 CFU/ml, is incubated in presence or absence of different concentrations of the tested molecules in 1% DMSO. After O/N growth the OD of each culture is measured at 600 nm (OD600) in a spectrophotometer (Victor 3-Perkin Elmer). The MIC represents the concentration at which there is no visible growth of bacteria, i.e. ΔOD at 600 nm equal to zero (blank is the medium alone).

[8] = system: MRSE; test: Minimal Bactericidal Concentration (MBC) for MRSE; format: cell-based, Staphylococcus epidermidis
Protocol: We have determined the Minimal Bactericidal Concentration (MBC) of the pyrazolopyrimidine molecule 2666 for the MRSA strain and the MBC of the purine molecules 2329 and 2833 for MRSA and the MRSE strain respectively.
To determine the MBC, bacteria were grown as per MIC determination in presence of the pyrazolopyrimidine molecule 2666 for MRSA or in presence of the purine molecule 2833 for MRSE or 2329 for MRSA. At 24 hours bacteria were plated on TSB agar plates by the broth microdilution method, and colonies formed on the plates were counted next day.
The MBC represents the lowest concentration at which 99.9% bacteria of the initial inoculum are killed over 24 hours.

[9] = Staphylococcus epidermidis, read-out: MIC MRSE (comparison molecules of WO2009/034386)
[10] = read-out: MIC MRSA (comparison molecules of WO2009/034386)
[11] = ATCC12600, read-out: MIC Xen29 (comparison molecules of WO2009/034386)

CCCCOc1nc(NCc2cccnc2)c2ncn(Cc3c(F)ccc(Cl)c3F)c2n1 [37z″, 2-Butoxy-9-(3-chloro-2,6-difluorobenzyl)-N-(pyridin-3-ylmethyl)-9H-purin-6-amine, reference compound]
MIC [1, 9]: > 200 µM
MIC [2, 10]: > 200 µM
MIC [3, 11]: > 200 µM
IC50 [4]: 5 µM

CCCCSc1nc(N)c2ncn(Cc3c(F)ccc(Cl)c3F)c2n1 [Molecule 36z, 2-(Butylthio)-9-(3-chloro-2,6-difluorobenzyl)-9H-purin-6-amine, reference compound]
IC50 [5]: 2 µM
MIC [1, 9]: > 200 µM
MIC [2, 10]: > 200 µM
MIC [3, 11]: > 200 µM
IC50 [4]: 5 µM

CCCSc1nc(N[C@@H]2C[C@H]2c2ccc(F)c(F)c2)c2ncn([C@@H]3C[C@H](O)[C@@H](O)[C@H]3O)c2n1 [Molecule 2461, (1S,2R,3S,4R)-4-(6-(((1R,2S)-2-(3,4-difluorophenyl)cyclopropyl)amino)-2-(propylthio)-9H-purin-9-yl)cyclopentane-1,2,3-triol]
MIC [6]: 20 to 25 µM (≈ 9.55 to 11.9 µg/mL)
MIC [7]: 25 µM (≈ 11.9 µg/mL)
MIC ([1]; Staphylococcus epidermidis, Mueller-Hinton broth (MHB), read-out: MIC S. epidermidis RP62): 20 µM (≈ 9.55 µg/mL)
MIC ([2]; read-out: MIC S. aureus MRSA): 25 µM (≈ 11.9 µg/mL)
MIC ([3]; ATCC12600, read-out: MIC S. aureus Xen29): 20 to 25 µM (≈ 9.55 to 11.9 µg/mL)

CCCn1ncc2c(N[C@@H]3C[C@H]3c3ccc(F)c(F)c3)nc(SC)nc21.Cl [Molecule 2693, N-((1R,2S)-2-(3,4-difluorophenyl)cyclopropyl)-6-(methylthio)-1-propyl-1H-pyrazolo[3,4-d]pyrimidin-4-amine hydrochloride]
MIC ([1]; MHB medium, tested up to 100 μM, hydrochloride, read-out: MIC MRSE): >100 µM
MIC ([1]; Staphylococcus epidermidis, read-out: MIC MRSE): > 100 µM
antibacterial activity against MRSA (in words) [2]: active
MIC ([2]; read-out: MIC MRSA): 20 µM
MIC ([3]; ATCC12600, read-out: MIC Xen29): > 100 µM

CCCCSc1nc(N[C@@H]2C[C@H]2c2ccc(F)c(F)c2)c2ncn(C)c2n1 [Molecule 2833, 2-(butylthio)-N-((1R,2S)-2-(3,4-difluorophenyl)cyclopropyl)-9-methyl-9H-purin-6-amine]
antibacterial activity / inhibition of MRSE growth (in words) ([1]; MHB medium): able to inhibit MRSE growth
MIC ([1]; Staphylococcus epidermidis, MHB medium, tested up to 100 μM, read-out: MIC MRSE): 30 µM (≈ 11.7 µg/mL)
MBC relative to MIC, MRSE [8]: around 2 times
MBC ([8]; Staphylococcus epidermidis, MRSE, 99.9% of initial inoculum killed over 24 hours): 50 µM (≈ 19.5 µg/mL)
antibacterial activity against MRSA (in words) [2]: active
MIC ([2]; read-out: MIC MRSA): 50 µM (≈ 19.5 µg/mL)
